The nature of test [1]: Effect of compound on GluR mediated phosphoinositol metabolisim at conc of 10 uM of GluR1b. It counts as functional.
For test [2], the target named is Metabotropic glutamate receptor 2 (Homo sapiens, UniProt Q14416). The test can be described thus: Antagonistic activity against stimulation of GTP (gamma) 35 S binding by glutamate in membranes from CHO cells expressing human Metabotropic glutamate receptor 2. It counts as cell membranes.
Test [3] deals with Metabotropic glutamate receptor 3 (Rattus norvegicus, UniProt P31422). Briefly: Compound was evaluated for the inhibition of binding of [3H]glutamate against rat recombinant Metabotropic glutamate receptor 3 expressed in HEK293 cells. It counts as cell-based.
Sequence of Metabotropic glutamate receptor 3 (P31422 whole entry): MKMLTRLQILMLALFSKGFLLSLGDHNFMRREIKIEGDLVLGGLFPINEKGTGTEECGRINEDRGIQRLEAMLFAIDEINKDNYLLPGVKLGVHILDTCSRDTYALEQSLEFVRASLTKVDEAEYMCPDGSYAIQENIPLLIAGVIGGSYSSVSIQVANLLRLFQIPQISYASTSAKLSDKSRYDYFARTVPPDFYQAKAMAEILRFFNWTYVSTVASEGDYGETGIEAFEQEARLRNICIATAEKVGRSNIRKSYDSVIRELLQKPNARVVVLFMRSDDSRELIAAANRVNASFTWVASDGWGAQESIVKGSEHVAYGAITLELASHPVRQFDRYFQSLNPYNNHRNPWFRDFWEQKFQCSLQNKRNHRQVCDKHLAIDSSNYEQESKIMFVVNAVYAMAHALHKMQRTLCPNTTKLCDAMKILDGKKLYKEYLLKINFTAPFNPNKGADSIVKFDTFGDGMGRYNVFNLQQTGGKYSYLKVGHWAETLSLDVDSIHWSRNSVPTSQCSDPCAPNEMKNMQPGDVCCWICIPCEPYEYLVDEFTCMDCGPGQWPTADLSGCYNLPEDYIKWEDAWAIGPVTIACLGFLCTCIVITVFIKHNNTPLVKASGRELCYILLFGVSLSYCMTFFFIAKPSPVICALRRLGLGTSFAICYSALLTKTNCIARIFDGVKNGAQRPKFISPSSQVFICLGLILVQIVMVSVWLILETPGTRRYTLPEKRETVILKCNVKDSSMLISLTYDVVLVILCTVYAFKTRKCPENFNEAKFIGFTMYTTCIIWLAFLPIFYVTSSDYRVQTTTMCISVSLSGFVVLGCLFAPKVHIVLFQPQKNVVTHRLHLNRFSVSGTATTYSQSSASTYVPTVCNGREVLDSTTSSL
Test [4] can be described thus: Effect of compound on GluR mediated phosphoinositol metabolisim at conc of 10 uM of mGluR5a. The test is classed as functional.
Test [5] can be described thus: Effect of compound on GluR mediated phosphoinositol metabolisim at conc of 50 uM of mGluR5a. The test is classed as functional.
A short description of test [6]: Effect of compound on GluR mediated phosphoinositol metabolisim at conc of 50 uM of GluR1b. The test is classed as functional.
Test [7] can be described thus: Hill coefficient was determined.

SMILES strings stand for the structures. Where “and” joins values, the source holds several entries; their conditions need not be identical. Identical values can stand only once.

The source of these data is ChEMBL document CHEMBL1134156, “Design, synthesis and preliminary evaluation of novel 3'-substituted carboxycyclopropylglycines as antagonists at group 2 metabotropic glutamate receptors” (Bioorg Med Chem Lett, 2001).

Sequence of Metabotropic glutamate receptor 2 (Q14416 whole entry): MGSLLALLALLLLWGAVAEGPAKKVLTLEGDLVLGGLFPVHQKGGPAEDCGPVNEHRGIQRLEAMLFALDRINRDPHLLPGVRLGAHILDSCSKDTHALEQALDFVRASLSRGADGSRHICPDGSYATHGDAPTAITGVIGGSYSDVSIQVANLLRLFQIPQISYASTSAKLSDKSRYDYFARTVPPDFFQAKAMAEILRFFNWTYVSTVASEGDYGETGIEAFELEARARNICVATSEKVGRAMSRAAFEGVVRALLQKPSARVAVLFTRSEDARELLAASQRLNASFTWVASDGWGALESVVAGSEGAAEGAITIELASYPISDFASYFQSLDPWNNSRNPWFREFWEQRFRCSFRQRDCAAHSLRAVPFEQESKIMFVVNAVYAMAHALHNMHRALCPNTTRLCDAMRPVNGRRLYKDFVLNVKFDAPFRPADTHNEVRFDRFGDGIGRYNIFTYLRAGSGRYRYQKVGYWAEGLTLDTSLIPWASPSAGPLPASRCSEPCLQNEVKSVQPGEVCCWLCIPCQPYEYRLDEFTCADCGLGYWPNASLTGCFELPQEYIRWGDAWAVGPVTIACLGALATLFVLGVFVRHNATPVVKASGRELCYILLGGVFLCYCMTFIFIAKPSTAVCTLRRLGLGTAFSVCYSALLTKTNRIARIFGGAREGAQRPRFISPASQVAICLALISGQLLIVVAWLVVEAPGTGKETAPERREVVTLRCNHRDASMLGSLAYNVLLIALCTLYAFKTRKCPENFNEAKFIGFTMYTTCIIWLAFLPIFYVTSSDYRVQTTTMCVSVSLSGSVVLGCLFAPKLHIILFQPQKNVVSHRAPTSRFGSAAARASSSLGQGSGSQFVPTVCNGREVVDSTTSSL

As to `NC(C(=O)O)[C@H]1[C@@H](CC2c3ccccc3Oc3ccccc32)[C@@H]1C(=O)O` (stereo not given in full), the Activity in test [1] worked out at 131%; in test [4] it was 101%; in test [5] it was 94%; in test [6] it was 95%. In addition, the Ki in test [2] worked out at 2700 nM. Besides, the IC50 in test [3] was determined as 1300 nM. For the same compound, the Hill coefficient in test [7] is 0.93 and 0.78.
Regarding `NC(C(=O)O)[C@H]1[C@@H](CCC2c3ccccc3Oc3ccccc32)[C@@H]1C(=O)O` (stereo not given in full), the Activity in test [1] is 110%; in test [4] it was 103%; in test [5], 91%; in test [6] it was 111%. Moreover, the half-maximal inhibitory concentration (IC50) was found to be 200 nM in test [2] and 75 nM in test [3]. Also, the Ki in test [2] was determined as 85 nM. Also, the Hill coefficient in test [7] is 0.92 and 1.09.
